Reference: patent publication US11826402B2, “Combination therapy involving antibodies against claudin 18.2 for treatment of metastatic pancreatic adenocarcinoma” (Astellas Pharma Inc., priority 2013, dated 2023)
“Also recorded” adds a separate entry of the source.

Columns and labels:
KATO-III = assay: IMAB362-induced ADCC on gastric cancer cells, also after chemotherapy pretreatment; type: cell-based, human; conditions: KATO-III; up to 200 μg/ml, 24 hours, human PBMC E:T 40:1
Description: Peripheral blood mononuclear cells (PBMCs) including NK cells, monocytes, […] or other effector cells from healthy human donors were purified by Ficoll Hypaque density centrifugation. Washed effector cells were seeded in X-Vivo medium. Kato III cells which express CLDN18.2 endogenously and are of gastric origin were used as target cells in this setting. Target cells stably expressed luciferase, lucifer yellow, which is oxidized by viable cells only.

CLDN18.1 = CLDN18.1 (Homo sapiens, UniProt P56856); assay: Binding to other claudin family members (background)
Sequence of CLDN18.1 (P56856 whole entry): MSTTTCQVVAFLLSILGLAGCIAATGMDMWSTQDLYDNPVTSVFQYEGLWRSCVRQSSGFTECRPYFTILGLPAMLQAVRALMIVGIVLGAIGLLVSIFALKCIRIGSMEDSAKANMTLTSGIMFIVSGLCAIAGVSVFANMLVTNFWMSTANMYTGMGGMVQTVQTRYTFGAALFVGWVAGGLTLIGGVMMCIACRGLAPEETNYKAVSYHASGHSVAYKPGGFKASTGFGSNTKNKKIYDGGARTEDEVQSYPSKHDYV

HPAFII = assay: IMAB362-mediated ADCC assay; type: cell-based, human; conditions: at least 2 donors
HUP-T3 = assay: IMAB362-mediated ADCC assay; type: cell-based, human; conditions: at least 2 donors
HUP-T4 = assay: IMAB362-mediated ADCC assay; type: cell-based, human; conditions: at least 2 donors
Panc01 = assay: IMAB362-mediated ADCC assay; type: cell-based, human; conditions: at least 2 donors
Panc03.27 = assay: IMAB362-mediated ADCC assay; type: cell-based, human; conditions: at least 2 donors
[1] = test system: CLDN18.2 expression in DANG; assay: Effect of chemotherapeutic agents on CLDN18.2 expression (RT-PCR, western blot); type: cell-based, human; conditions: DANG pretreated 2 days, Gem 1 ng/ml or Gem 1 ng/ml+Ox 10 ng/ml, versus untreated
Description: FIGS. 30A and 30B show the effect of treatment with chemotherapeutic agents on CLDN18.2 expression (RNA).
Actin was used to show equal loading of proteins.
The area of each bar is divided to indicate the percentage of cells in G0/G1, S and G2 phase.
For RNA isolation from pancreatic cancer cell lines, cells were seeded in 10 cm dishes and grown for 2-3 days until 80% confluent. RNA was isolated according to instructions supplied with the RNeasy® Mini Kit (Qiagen). cDNA preparation was performed following manufacturers instructions provided with the SuperScript® III First Strand kit (Invitrogen). RNA and cDNA samples were stored at −80° C.
Quantitative analysis of CLDN18.2 transcripts was performed by amplifying oligo(dT)-primed cDNAs in a 40 cycle PCR reaction using PCR primers #5054s (5′-[…]-3′) and #5060 as (5′-[…]-3′) differentiating between CLDN18.1 and CLDN18.2 isoforms. The reaction was prepared with SYBR Green (QuantiTect SYBR Green PCR Kit, Qiagen), which intercalates in double stranded DNA. […]
For isolation of proteins of pancreatic cancer cell lines, cells were seeded in 10 cm dishes and grown for 2-3 days until 80% confluent. […] Protein concentration was measured in a spectrophotometer (Absorption at 280 nm) and samples were stored at −80° C. until use. […]

IMAB362: chimeric IgG1 antibody directed against CLDN18.2, developed by Ganymed Pharmaceuticals AG
maximum lysis rates (ADCC) (KATO-III): 80-100% | binding to CLDN18.1 and other claudin family members (CLDN18.1): does not bind | ADCC EC50 (HPAFII): n.m. | ADCC Max. lysis (HPAFII): n.m. | ADCC EC50 (HUP-T3): n.m. | ADCC EC50 (HUP-T4): n.m. | ADCC Max. lysis (HUP-T4): n.m. | ADCC EC50 (Panc01): n.m. | ADCC Max. lysis (Panc01): 0-4.5% | ADCC EC50 (Panc03.27): n.m. | ADCC Max. lysis (Panc03.27): n.m.

Nc1ccn([C@@H]2O[C@H](CO)[C@@H](O)C2(F)F)c(=O)n1 [gemcitabine, 4-amino-1-(2-deoxy-2,2-difluoro-β-D-erythro-pentofuranosyl)pyrimidin-2(1H)-one]
mRNA and protein levels of CLDN18.2 [1]: increased; also recorded: upregulation | mRNA and protein levels of CLDN18.2 ([1]; listed as Gem): upregulation
